From ChEMBL document CHEMBL1129432, “Structure-activity relationships of a series of novel (piperazinylbutyl)thiazolidinone antipsychotic agents related to 3-[4-[4-(6-fluorobenzo[b]thien-3-yl)-1-piperazinyl]butyl]-2,5,5- trimethyl-4-thiazolidinone maleate” (J Med Chem, 1996)

Assays:
[1] = target: T1, 5-hydroxytryptamine receptor 1A (Rattus norvegicus, UniProt P19327); experiment: Binding affinity towards serotonin 5-HT1A receptor was determined in rat hippocampus using [3H]8-OH-DPAT as ligand; type: tissue-based
T1 sequence (P19327 whole entry): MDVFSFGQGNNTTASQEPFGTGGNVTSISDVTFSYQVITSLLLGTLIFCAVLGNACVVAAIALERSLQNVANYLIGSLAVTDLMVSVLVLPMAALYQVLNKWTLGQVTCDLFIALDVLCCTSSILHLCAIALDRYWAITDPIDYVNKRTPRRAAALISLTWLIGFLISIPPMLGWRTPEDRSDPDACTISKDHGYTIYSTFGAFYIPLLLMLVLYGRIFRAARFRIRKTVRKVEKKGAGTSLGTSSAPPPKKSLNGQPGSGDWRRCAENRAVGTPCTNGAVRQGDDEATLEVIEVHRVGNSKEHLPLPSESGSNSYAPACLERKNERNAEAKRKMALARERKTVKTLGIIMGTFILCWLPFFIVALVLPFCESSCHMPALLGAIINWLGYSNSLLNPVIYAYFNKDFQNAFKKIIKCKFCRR

[2] = target: Serotonin 2 (5-HT2) receptor (Rattus norvegicus, UniProt P30994+P08909+P14842); experiment: Binding affinity towards serotonin 5-HT2 receptor was determined in rat cortex using [3H]spiperone as ligand
[3] = target: D(2) dopamine receptor (Rattus norvegicus, UniProt P61169); experiment: Binding affinity towards Dopamine receptor D2 was determined in rat striatum using [3H]- spiperone as radioligand; type: tissue-based
[4] = test system: Rattus norvegicus; experiment: Compound at an intraperitoneal dose of 20 mg/Kg was tested for the inhibition of apomorphine-induced stereotypy in rat; type: functional; design: scale not given: the % may be the effect or the level left
[5] = test system: Rattus norvegicus; experiment: Compound at an intraperitoneal dose of 30 mg/Kg was tested for the inhibition of apomorphine-induced stereotypy in rat; type: functional; design: scale not given: the % may be the effect or the level left
[6] = test system: Rattus norvegicus; experiment: Percentage change in Total activity (anti psychotic) when compound administered at a doe of 0.05 mg/kg ip in rats; type: functional; conditions: route intraperitoneal
[7] = test system: Rattus norvegicus; experiment: Percentage change in Total activity (anti psychotic) when compound administered at a doe of 0.125 mg/kg ip in rats; type: functional; conditions: route intraperitoneal
[8] = test system: Rattus norvegicus; experiment: Percentage change in Social interaction when compound administered at a doe of 0.05 mg/kg ip in rats; type: functional; conditions: route intraperitoneal
[9] = test system: Rattus norvegicus; experiment: Percentage change in Social interaction when compound administered at a doe of 0.125 mg/kg ip in rats; type: functional; conditions: route intraperitoneal
[10] = test system: Rattus norvegicus; experiment: Percentage change in chronic single unit sampling when compound given at a dose of 0.5 mg/kg ip in rats; type: functional; conditions: route intraperitoneal
[11] = test system: Rattus norvegicus; experiment: Percentage change in chronic single unit sampling when compound given at a dose of 0.5 mg/kg ip in rats (Expt-2); type: functional; conditions: route intraperitoneal
[12] = Intraperitoneal effective dose required for inhibition of apomorphine-induced stereotypy in rat; type: functional; conditions: ip
[13] = test system: Rattus norvegicus; experiment: Anti psychotic effect Social interaction when compound administered at a doe of 0.05 mg/kg ip in rats; type: functional; conditions: route intraperitoneal
[14] = test system: Rattus norvegicus; experiment: Anti psychotic effect Social interaction when compound administered at a doe of 0.125 mg/kg ip in rats; type: functional; conditions: route intraperitoneal
[15] = test system: Rattus norvegicus; experiment: Total activity (anti psychotic) when compound administered at a doe of 0.125 mg/kg ip in rats; type: functional; conditions: route intraperitoneal

D(2) dopamine receptor, sequence (P61169 whole entry): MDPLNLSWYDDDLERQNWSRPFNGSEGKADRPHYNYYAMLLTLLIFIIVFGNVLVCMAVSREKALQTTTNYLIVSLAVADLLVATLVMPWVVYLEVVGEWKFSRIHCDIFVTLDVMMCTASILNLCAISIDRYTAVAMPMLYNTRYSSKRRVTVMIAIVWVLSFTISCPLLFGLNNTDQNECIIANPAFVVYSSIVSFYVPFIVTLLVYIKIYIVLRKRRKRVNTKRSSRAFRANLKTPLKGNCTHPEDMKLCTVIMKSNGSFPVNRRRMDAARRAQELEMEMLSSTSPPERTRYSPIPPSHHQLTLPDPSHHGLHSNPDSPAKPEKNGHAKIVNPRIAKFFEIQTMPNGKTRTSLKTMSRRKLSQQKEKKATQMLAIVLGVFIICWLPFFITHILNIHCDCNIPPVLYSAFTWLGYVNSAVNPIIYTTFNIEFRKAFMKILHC

| IC50 [1] [nM] | IC50 [2] [nM] | IC50 [3] [nM] | SMILES | Activity [4] [%] | Activity [5] [%] | Change [6] [%] | Change [7] [%] | Change [8] [%] | Change [9] [%] | Change [10] [%] | Change [11] [%] | ED50 [12] [mg/kg] | Social interaction [13] | Social interaction [14] | Total activity [15] |
| --- | --- | --- | --- | --- | --- | --- | --- | --- | --- | --- | --- | --- | --- | --- | --- |
| 3 | 9.6 | 154 | CC1SC2(CCCC2)C(=O)N1CCCCN1CCN(c2nsc3ccccc23)CC1 (stereo not given) | 10 | 100 |  |  |  |  |  |  |  |  |  |  |
|  |  |  | O=C(CCCN1CCC(O)(c2ccc(Cl)cc2)CC1)c1ccc(F)cc1 [HALOPERIDOL] |  |  | -11 | -22 | -19 | -32 | -35 | -30 | 0.6 | 77.2 | 65.6 | 112.3 |
